From patent US11912794B2, “Modulation of structured polypeptide specificity” (BicycleRD Limited, priority 2011, dated 2024)
Read-outs that look alike come from different tables or passages of the source. Numbered stars: 1 amine (or outer) side, 2 acyl side, 3 side chain; on linkers, the order of the positions; unused ones are H or OH. Bridge positions count the residues as written; N and C are the ends. Square brackets hold non-standard residues; d marks the D form. Peptide text beside a SMILES is read from it. Phe(4-guanidino) = N=C(N)Nc1ccc(C[C@H](N)C(=O)O)cc1; Pro(trans-4-Ph) = O=C(O)[C@@H]1C[C@@H](c2ccccc2)CN1; Pro(4R-Bn) = O=C(O)[C@@H]1C[C@@H](Cc2ccccc2)CN1; 2Nal = N[C@@H](Cc1ccc2ccccc2c1)C(=O)O; TBMB = c1c(C[*:1])cc(C[*:3])cc1C[*:2]; Hyp = O=C(O)[C@@H]1C[C@@H](O)CN1; Tic = O=C(O)[C@@H]1Cc2ccccc2CN1; Pen = CC(C)(S)[C@H](N)C(=O)O; Aze = O=C(O)[C@@H]1CCN1; Aib = CC(C)(N)C(=O)O; βAla = NCCC(=O)O

Assays:
[1] = Plasma stability profiling method 1 (35% plasma, MALDI-TOF, qualitative); type: in vitro ADME, rat; settings: for Observable in rat plasma, for days: 35% rat plasma, 37 deg C, method 1, comparative estimate; for rat plasma stability: method 1
Protocol: Three methods were employed to assess the stability of bicycles (peptides conjugated to molecular scaffolds) in plasma.
A rapid plasma stability profiling assay was developed that employed mass spectrometric detection (MALDI-TOF, Voyager DE, Applied Biosystems) of the parent mass, until the time when the parent peptide mass was no longer observable. Specifically, 200 uM of peptide was incubated in the presence of 35% rat or human plasma (Sera labs, using citrate as anticoagulant) at 37 deg C., which was supplemented with 1×PBS (derived from a 10×PBS Stock, Sigma). At various time points (i.e. t=0, 3, 24 hrs, henceafter daily up to 10 days), 2 uL of sample was added to 18 uL of 30 mM ammonium bicarbonate in a 1:1 mixture of acetonitrile:H2O. Samples were frozen at −80 deg C. until the time of analysis. For mass spectrometric analysis that determines the approximate detection window of the peptide, the acetonitrile:H2O-diluted sample of a given time point was spotted directly (0.7 uL) onto the MALDI plate. Matrix (alpha-cyanocinnamic acid, Sigma, prepared as a saturated solution in 1:1 acetonitrile:water containing 0.1% trifluoroacetic acid) was layered over the sample (1 uL). At a similar laser intensity setting on the MALDI TOF, the time could then be determined until parent peptide was no longer detectable. It should be noted that this is a qualitative assay serves to detect relative changes in plasma stability.

[2] = biological target: T1, human plasma Kallikrein (Homo sapiens, UniProt P03952); test: Functional enzyme inhibition assay, fluorogenic substrate Z-PheArg-AMC; type: biochemical
T1 construct: purchased Stratech, UK
Protocol: Peptides were dissolved as the TFA-salts in their powder form, and stock solutions were usually prepared in water. All solutions were centrifuged and filtered ([…] syringe filters) prior absorption measurement at 280 nm. […] For peptides containing non-natural amino acids with suspected chromophoric properties (i.e. NorHar, 4PhenylPro, 3PaI, 4PaI, Tic, 4GuanPhe, 4,4-BPAI, 3,3-DPA, 1NAI, 2NAI, 4BenzylPro, Ind) concentrations were determined by weighing the powder and dissolving the peptide in a defined quantity of water.

[3] = Ki (nM) (human kallikrein), Ac-06-34-18(TMB)-NH2 series

T1 sequence (P03952 20-638): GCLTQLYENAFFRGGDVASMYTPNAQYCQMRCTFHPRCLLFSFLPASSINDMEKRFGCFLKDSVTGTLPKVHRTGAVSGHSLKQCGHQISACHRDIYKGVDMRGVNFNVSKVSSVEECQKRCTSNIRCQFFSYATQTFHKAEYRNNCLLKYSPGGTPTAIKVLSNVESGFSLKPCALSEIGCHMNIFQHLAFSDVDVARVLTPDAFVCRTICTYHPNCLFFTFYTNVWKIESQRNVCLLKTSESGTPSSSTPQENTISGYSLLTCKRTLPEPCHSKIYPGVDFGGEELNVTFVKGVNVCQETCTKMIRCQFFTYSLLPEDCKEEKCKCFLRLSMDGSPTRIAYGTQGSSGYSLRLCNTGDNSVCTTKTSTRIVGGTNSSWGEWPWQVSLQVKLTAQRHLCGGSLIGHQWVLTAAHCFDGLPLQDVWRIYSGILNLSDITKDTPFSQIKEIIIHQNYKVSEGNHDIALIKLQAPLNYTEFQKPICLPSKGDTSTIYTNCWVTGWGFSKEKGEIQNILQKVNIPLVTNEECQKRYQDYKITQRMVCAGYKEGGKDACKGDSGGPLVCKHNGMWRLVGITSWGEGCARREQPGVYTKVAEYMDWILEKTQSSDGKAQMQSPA

| SMILES | Observable in rat plasma, for days [1] [days] | Ki [2, 3] [nM] | also measured |
| --- | --- | --- | --- |
| CC(=O)N[C@H]1CSCc2cc3cc(c2)CSC[C@H](NC(=O)[C@H](CCCNC(=N)N)NC(=O)CCNC(=O)[C@@H]2CCCN2C(=O)[C@H](Cc2c[nH]c4ccccc24)NC(=O)[C@H](CO)NC1=O)C(=O)N[C@@H](CC(C)C)C(=O)N[C@@H](Cc1c[nH]cn1)C(=O)N[C@@H](CCC(N)=O)C(=O)N[C@@H](CC(=O)O)C(=O)N[C@@H](CC(C)C)C(=O)N[C@H](C(N)=O)CSC3 [Ac-(06-34-18) β-Ala4] (Ac-CSWP[βAla]RCLHQDLC-NH2; linker 1-7-13 via TBMB) | 10 |  | Ki ([2]; text b279, read-out: affinity to Kallikrein): ~20000 nM |
| CC(=O)N[C@H]1CSCc2cc3cc(c2)CSC[C@H](NC(=O)[C@H](CCCNC(=N)N)NC(=O)[C@H](Cc2ccc(O)cc2)NC(=O)[C@@H]2CCCN2C(=O)[C@H](Cc2c[nH]c4ccccc24)NC(=O)[C@H](CO)NC1=O)C(=O)N[C@@H](CC(C)C)C(=O)N[C@@H](Cc1c[nH]cn1)C(=O)N[C@@H](CCC(N)=O)C(=O)N[C@@H](CC(=O)O)C(=O)N[C@@H](CC(C)C)C(=O)N[C@H](C(N)=O)CSC3 [Ac-(06-34-18) WPYR] (Ac-CSWPYRCLHQDLC-NH2; linker 1-7-13 via TBMB) | 2 | 0.41 |  |
| CC(=O)N[C@H]1CSCc2cc3cc(c2)CSC[C@H](NC(=O)[C@H](CCCNC(=N)N)NC(=O)[C@H](C)NC(=O)[C@@H]2Cc4ccccc4CN2C(=O)[C@H](Cc2c[nH]c4ccccc24)NC(=O)[C@H](CO)NC1=O)C(=O)N[C@@H](CC(C)C)C(=O)N[C@@H](Cc1c[nH]cn1)C(=O)N[C@@H](CCC(N)=O)C(=O)N[C@@H](CC(=O)O)C(=O)N[C@@H](CC(C)C)C(=O)N[C@H](C(N)=O)CSC3 [Ac-(06-34-18) Tic3] (Ac-CSW[Tic]ARCLHQDLC-NH2; linker 1-7-13 via TBMB) | 2 | 13.5 |  |
| CC(=O)N[C@H]1CSCc2cc3cc(c2)CSC[C@H](NC(=O)[C@H](CCCNC(=N)N)N(C)C(=O)[C@H](C)NC(=O)[C@@H]2CCCN2C(=O)[C@H](Cc2c[nH]c4ccccc24)NC(=O)[C@H](CO)NC1=O)C(=O)N[C@@H](CC(C)C)C(=O)N[C@@H](Cc1c[nH]cn1)C(=O)N[C@@H](CCC(N)=O)C(=O)N[C@@H](CC(=O)O)C(=O)N[C@@H](CC(C)C)C(=O)N[C@H](C(N)=O)CSC3 [Ac-(06-34-18) NMeArg5] |  |  | rat plasma stability [1]: exceeds the assay time; loss in potency / reduction in affinity compared to wildtype ([2]; vs Ac-06-34-18(TMB)-NH2): 20 fold |
| CC(=O)N[C@H]1CSCc2cc3cc(c2)CSC[C@H](NC(=O)[C@H](CCCNC(=N)N)NC(=O)[C@H](C)NC(=O)[C@@H]2CCCN2C(=O)[C@H](Cc2ccc4ccccc4c2)NC(=O)[C@H](CO)NC1=O)C(=O)N[C@@H](CC(C)C)C(=O)N[C@@H](Cc1c[nH]cn1)C(=O)N[C@@H](CCC(N)=O)C(=O)N[C@@H](CC(=O)O)C(=O)N[C@@H](CC(C)C)C(=O)N[C@H](C(N)=O)CSC3 [Ac-(06-34-18) 2NAL2] (Ac-CS[2Nal]PARCLHQDLC-NH2; linker 1-7-13 via TBMB) | 2 | 0.5 |  |
| CC(=O)N[C@H]1CSCc2cc3cc(c2)CSC[C@H](NC(=O)[C@H](CCCNC(=N)N)NC(=O)C(C)(C)NC(=O)[C@@H]2CCCN2C(=O)[C@H](Cc2c[nH]c4ccccc24)NC(=O)[C@H](CO)NC1=O)C(=O)N[C@@H](CC(C)C)C(=O)N[C@@H](Cc1c[nH]cn1)C(=O)N[C@@H](CCC(N)=O)C(=O)N[C@@H](CC(=O)O)C(=O)N[C@@H](CC(C)C)C(=O)N[C@H](C(N)=O)CSC3 [Ac-(06-34-18) Aib4] (Ac-CSWP[Aib]RCLHQDLC-NH2; linker 1-7-13 via TBMB) | 7 | 289 |  |
| CC(=O)N[C@H]1CSCc2cc3cc(c2)CSC[C@H](NC(=O)[C@H](CCCNC(=N)N)NC(=O)[C@H](C)NC(=O)[C@@H]2C[C@@H](O)CN2C(=O)[C@H](Cc2c[nH]c4ccccc24)NC(=O)[C@H](CO)NC1=O)C(=O)N[C@@H](CC(C)C)C(=O)N[C@@H](Cc1c[nH]cn1)C(=O)N[C@@H](CCC(N)=O)C(=O)N[C@@H](CC(=O)O)C(=O)N[C@@H](CC(C)C)C(=O)N[C@H](C(N)=O)CSC3 [Ac-(06-34-18) HyP3] (Ac-CSW[Hyp]ARCLHQDLC-NH2; linker 1-7-13 via TBMB) | 2 | 0.41 |  |
| CC(=O)N[C@H]1CSCc2cc3cc(c2)CSC[C@H](NC(=O)[C@H](CCCNC(=N)N)NC(=O)[C@H](C)NC(=O)C(C)(C)NC(=O)[C@H](Cc2c[nH]c4ccccc24)NC(=O)[C@H](CO)NC1=O)C(=O)N[C@@H](CC(C)C)C(=O)N[C@@H](Cc1c[nH]cn1)C(=O)N[C@@H](CCC(N)=O)C(=O)N[C@@H](CC(=O)O)C(=O)N[C@@H](CC(C)C)C(=O)N[C@H](C(N)=O)CSC3 [Ac-(06-34-18) Aib3] (Ac-CSW[Aib]ARCLHQDLC-NH2; linker 1-7-13 via TBMB) | 2 | 1.2 |  |
| CC(=O)N[C@H]1CSCc2cc3cc(c2)CSC[C@H](NC(=O)[C@H](CCCNC(=N)N)NC(=O)[C@H](C)NC(=O)[C@@H]2C[C@@H](Cc4ccccc4)CN2C(=O)[C@H](Cc2c[nH]c4ccccc24)NC(=O)[C@H](CO)NC1=O)C(=O)N[C@@H](CC(C)C)C(=O)N[C@@H](Cc1c[nH]cn1)C(=O)N[C@@H](CCC(N)=O)C(=O)N[C@@H](CC(=O)O)C(=O)N[C@@H](CC(C)C)C(=O)N[C@H](C(N)=O)CSC3 [Ac-(06-34-18) 4Benzyl Pro3] (Ac-CSW[Pro(4R-Bn)]ARCLHQDLC-NH2; linker 1-7-13 via TBMB) | 2 | 191 |  |
| CC(=O)N[C@H]1CSCc2cc3cc(c2)CSC[C@H](NC(=O)[C@H](CCCNC(=N)N)NC(=O)[C@H](C)NC(=O)[C@@H]2C[C@@H](c4ccccc4)CN2C(=O)[C@H](Cc2c[nH]c4ccccc24)NC(=O)[C@H](CO)NC1=O)C(=O)N[C@@H](CC(C)C)C(=O)N[C@@H](Cc1c[nH]cn1)C(=O)N[C@@H](CCC(N)=O)C(=O)N[C@@H](CC(=O)O)C(=O)N[C@@H](CC(C)C)C(=O)N[C@H](C(N)=O)CSC3 [Ac-(06-34-18) 4Phenyl Pro3] (Ac-CSW[Pro(trans-4-Ph)]ARCLHQDLC-NH2; linker 1-7-13 via TBMB) | 2 | 0.58 |  |
| CC(=O)N[C@H]1CSCc2cc3cc(c2)CSC(C)(C)[C@H](NC(=O)[C@H](CCCNC(=N)N)NC(=O)[C@H](C)NC(=O)[C@@H]2CCCN2C(=O)[C@H](Cc2c[nH]c4ccccc24)NC(=O)[C@H](CO)NC1=O)C(=O)N[C@@H](CC(C)C)C(=O)N[C@@H](Cc1c[nH]cn1)C(=O)N[C@@H](CCC(N)=O)C(=O)N[C@@H](CC(=O)O)C(=O)N[C@@H](CC(C)C)C(=O)N[C@H](C(N)=O)CSC3 [Ac-(06-34-18) Cys2ToPen2] (Ac-CSWPAR[Pen]LHQDLC-NH2; linker 1-7-13 via TBMB) | 5 |  | rat plasma stability [1]: slightly enhanced; potency against human plasma Kallikrein compared to parent [2]: potency dropped significantly |
| CC(=O)N[C@H]1CSCc2cc3cc(c2)CSC[C@H](NC(=O)[C@H](CCCNC(=N)N)NC(=O)[C@H](C)NC(=O)[C@@H]2CCCN2C(=O)[C@H](Cc2ccccc2)NC(=O)[C@H](CO)NC1=O)C(=O)N[C@@H](CC(C)C)C(=O)N[C@@H](Cc1c[nH]cn1)C(=O)N[C@@H](CCC(N)=O)C(=O)N[C@@H](CC(=O)O)C(=O)N[C@@H](CC(C)C)C(=O)N[C@H](C(N)=O)CSC3 [Ac-(06-34-18) FPAR] (Ac-CSFPARCLHQDLC-NH2; linker 1-7-13 via TBMB) | 2 |  | loss in potency / reduction in affinity compared to wildtype ([2]; vs Ac-06-34-18(TMB)-NH2): 40 fold |
| CC(=O)N[C@H]1CSCc2cc3cc(c2)CSC[C@H](NC(=O)[C@H](CCCNC(=N)N)NC(=O)[C@H](C)NC(=O)[C@@H]2CCN2C(=O)[C@H](Cc2c[nH]c4ccccc24)NC(=O)[C@H](CO)NC1=O)C(=O)N[C@@H](CC(C)C)C(=O)N[C@@H](Cc1c[nH]cn1)C(=O)N[C@@H](CCC(N)=O)C(=O)N[C@@H](CC(=O)O)C(=O)N[C@@H](CC(C)C)C(=O)N[C@H](C(N)=O)CSC3 [Ac-(06-34-18) Aze3] (Ac-CSW[Aze]ARCLHQDLC-NH2; linker 1-7-13 via TBMB) | 2 |  | affinity surpassing that of wildtype by a factor ([2]; vs Ac-06-34-18(TMB)-NH2): 3 |
| CC(=O)N[C@H]1CSCc2cc3cc(c2)CSC[C@H](NC(=O)[C@H](Cc2ccc(NC(=N)N)cc2)NC(=O)[C@H](C)NC(=O)[C@@H]2CCN2C(=O)[C@H](Cc2c[nH]c4ccccc24)NC(=O)[C@H](CO)NC1=O)C(=O)N[C@@H](CC(C)C)C(=O)N[C@@H](Cc1c[nH]cn1)C(=O)N[C@@H](CCC(N)=O)C(=O)N[C@@H](CC(=O)O)C(=O)N[C@@H](CC(C)C)C(=O)N[C@H](C(N)=O)CSC3 [Ac-(06-34-18) Aze3 4GuanPhe5] (Ac-CSW[Aze]A[Phe(4-guanidino)]CLHQDLC-NH2; linker 1-7-13 via TBMB) | >10 | 0.17 |  |
